Experimental data as given in paper PMC6570783, “The Novel C5aR Antagonist DF3016A Protects Neurons Against Ischemic Neuroinflammatory Injury” (Neurotoxicity Research, 2019).

Legend:
[1] = Rat plasma protein binding (rPPB); type: in vitro ADME
[2] = test system: cortical neurons exposed to OGD/R; assay: AO/ET staining of live and dead neurons after OGD/R; type: cell-based, rat; conditions: 500 nM, OGD/R 3 h
Procedure: DF3016A (500 nM) was added to the cortical neurons which were exposed to O2 and glucose deprivation with glucose-free Neurobasal in Hypoxia Chamber for Cell Culture (BioSpherix) at 5% CO2 atmosphere-85% N2. O2 concentration was monitored by using a ProOx sensor controller, and the 0.03% O2 value was considered acceptable. Cells were incubated in this anaerobic chamber for 1 h and then removed from the anaerobic environment. […] Cells of control group were treated identically except that they were not exposed to OGD/R.
Images have been acquired through a fluorescent microscope combined with a Digital Color Camera.

[3] = test system: panel of GPCRs, enzymes, ion channels, transporters, and nuclear receptors (44 targets); assay: SafetyScreen44 Panel radioligand binding (Eurofins Cerep); conditions: 10 μM, triplicate
Procedure: DF3016A was tested in the SafetyScreen44 Panel performed at Eurofins Cerep SA (France) by radio ligand binding assays to assess the off-target activities towards a panel of GPCRs, enzymes, ion channels, transporters, and nuclear receptors. All selected targets are recommended by four major pharmaceutical companies (Bowes et al. [2012]). The compound was tested at a single concentration of 10 μM in triplicate.
DF3016A was dissolved in dimethyl sulfoxide (DMSO) to achieve 10 mM stock solution that was diluted with water/HBSS to a final concentration of 10 μM. Cell membrane homogenates (48 μg protein) were incubated for 60 min at 22 °C with the respective reference compound in the absence or presence of the test compound in a buffer containing 50 mM Tris-HCl (pH 7.4), 2 mM MgCl2, and 1 mM ethylene-diamine-tetra-acetic acid (EDTA). After incubation, the samples were filtered rapidly under vacuum through glass fiber filters (GF/B, Packard Instruments, Meriden, CT, USA) presoaked with 0.3% polyethyleneimine (PEI), and rinsed several times with ice-cold 50 mM Tris-HCl using a 96-sample cell harvester (Unifilter, Packard Instruments). The filters were dried, then counted for radioactivity in a scintillation counter (Topcount, Packard Instruments) using a scintillation cocktail (Microscint-O, Packard Instruments).

[4] = biological target: rat C5aR (Rattus norvegicus, UniProt P97520); conditions: read-out: IC50, rat C5aR (C5a-induced PMN migration); rat PMNs, 10 nM rC5a
Procedure: (§1) Murine and rat PMNs were isolated from peritoneal cavities injected with 1.5 ml of 3% thioglycolate in saline to male Balb/c mice (20–25 g and 7–9 weeks of age, provided by Charles River, Calco, Italy) or with […] of 3% thioglycolate in saline to SD rat (370–450 g and 3–4 months of age provided by Charles River, UK). Four hours after injection, the animals were sacrificed by decapitation and peritoneal cavities were washed with saline. PMNs were recovered and centrifuged at 600×g for 10 min. The pellet was resuspended in Hank’s Balanced Salt Solution (HBSS); then the cells were counted using Türk’s solution and diluted at 3 × 10^6 cells/ml.
(§2) Migration of human, rat, and mouse PMNs was evaluated using a 48-well micro-chemotaxis chamber, as previously described (Bertini et al. [2004]). […] Fifty microliters of cell suspension (1.5 × 10^6/ml for human PMNs, 3.0 × 10^6/ml for rat and mouse PMNs) pre-incubated at 37 °C for 15 min in the presence or absence of different concentrations of DF3016A or vehicle was seeded in the upper compartment. The chamber was incubated at 37 °C in air with 5% CO2 for 45 min. At the end of incubation, filters containing migrated cells were removed, fixed, and stained with Diff-Quik, and five oil immersion fields at high magnification (×100; Zeiss microscope) were counted after sample coding.

[5] = biological target: mouse C5aR (Mus musculus, UniProt P30993); conditions: read-out: IC50, mouse C5aR (C5a-induced PMN migration); mouse PMNs, 10 nM mC5a
Procedure: as §1, §2

[6] = test system: TNF-α; assay: TNF-α release (ELISA) in OGD/R neurons; type: cell-based, rat; conditions: 500 nM
Procedure: (§3) Quantitative measurements of cellular proteins (C5a, TNF-α, IL-1β, and IL-6) in cell culture supernatants were determined by ELISA methods using Rat IL-6, Mouse TNFα, Rat IL-1β PicoKine™ ELISA Kits (Boster Biological Technology) and Rat C5a ELISA Kit (Elabscience Biotechnology Inc.) according to the manufacturer’s instructions. All tests were performed in triplicate.

[7] = test system: miR-181a; assay: miR-181a expression (qPCR) in OGD/R neurons; type: cell-based, rat; conditions: 500 nM, P < 0.001 OGD/R-DF vs OGD/R-UT
Procedure: (§4) The total RNA, including microRNA (miRNA), from cells in cultures were extracted with Ribospin Kit (GenaAll) followed by Riboclear Plus Kit (GenaAll) to remove residual DNA according to the manufacturer’s protocols.
(§5) Total mRNA transcription (2μg/20 μl) was performed using High Capacity cDNA Reverse Transcription Kit (Applied Biosystems) and reverse transcription for MicroRNA (10 ng/15 μl) was performed using TaqMan MicroRNA Reverse Transcription Kit (Applied Biosystems).
(§6) The qPCR 20 μl/reactions for miR-181a (assay ID: hsa-miR-181a) and C5aR (assay ID: Rn02134203_s1) were conducted in triplicate using TaqMan® MicroRNA Assay Kit and TaqMan® Gene Expression Assays protocol (Applied Biosystems), respectively, following the manufacturer’s instructions. Reactions were performed using a Step One Plus Applied Biosystems thermocycler (Life Technologies) with the default protocol. Briefly, for each reaction 40 cycles of amplification with the following profile were performed: 95 °C for 10 min for the first cycle, followed by 40 cycles of 95 °C for 15 s, and 60 °C for 1 min.
(§7) Relative intensity of PCR-specific amplicons was calculated using the 2^−ΔΔCt method (Livak and Schmittgen [2001]). Beta-actin (assay ID: Rn00667869_m1) and U6 (assay ID: 001973) small nuclear RNA (snRNA) (Han et al. [2015]) were used as internal control to normalize the level of each transcript.

[8] = test system: C5aR gene expression; assay: C5aR gene expression (qRT-PCR) in OGD/R neurons; type: cell-based, rat; conditions: 500 nM
Procedure: as §4, §5, §6, §7

[9] = test system: C5a protein level; assay: C5a protein release (ELISA) in OGD/R neurons; type: cell-based, rat; conditions: 500 nM
Procedure: as §3

[10] = test system: primary rat cortical neurons; assay: Neuronal viability (MTS), toxicity of DF3016A
Procedure: Neuronal cultures were prepared from cortices of 17–18-day-old Sprague-Dawley rat fetuses. Two pregnant rats, provided from Envigo RMS S.r.l. (Z.I. Azzida, 57–33,049 S. Pietro al Natisone, Udine Italy), were euthanized by exposition to a gradually rising concentration of CO2 and then decapitated. Rat brains were isolated using standard procedures, and after the elimination of meninges, the cortical tissues were dissociated by trituration and digestion with 20 U/ml papain (Invitrogen, Karlsruhe, Germany) for 30 min at 37 °C. Approximately 1 × 10^6 cells in 1 ml DMEM/F12 medium containing 0.2 mM Glutamax, 1% penicillin/streptomycin (Pen/Strep), 5% fetal bovine serum, and 5% horse serum were seeded into poly-D-lysine pretreated plates. […] Neurons were maintained in a humidified atmosphere (5% CO2/95% air) at 37 °C and used for experiments after 8–10 days in vitro.
DF3016A was dissolved in DMSO. The final concentration of DMSO in the medium was below 0.1%. […]
Quantifications of neuronal viability were assessed by MTS method using Cell Titer One Solution Cell Proliferation Assay (Promega Corporation Madison, WI, USA) based on 3-(4,5-dimethylthiazol-2-yl)-5-(3-carboxymethoxyphenil)-2-(4-sulfophenyl)-2H-tetrazolium (MTS) (dilution 1:10). Viable cells with active metabolism convert MTT into formazan, detected by absorbance measurements at 490 nm in a BioTeek Elx800 microplate reader.

[11] = test system: spontaneous cell migration; assay: Spontaneous PMN migration; type: cell-based
Procedure: (§8) Migration of human, rat, and mouse PMNs was evaluated using a 48-well micro-chemotaxis chamber, as previously described (Bertini et al. [2004]). […] The chamber was incubated at 37 °C in air with 5% CO2 for 45 min. At the end of incubation, filters containing migrated cells were removed, fixed, and stained with Diff-Quik, and five oil immersion fields at high magnification (×100; Zeiss microscope) were counted after sample coding.

[12] = test system: PMN migration induced by CXCL1; assay: CXCL1-induced PMN migration; type: cell-based; conditions: up to 10 μM
Procedure: as §8

[13] = test system: IL-1β; assay: IL-1β release (ELISA) in OGD/R neurons; type: cell-based, rat; conditions: 500 nM
Procedure: as §3

[14] = Rat oral pharmacokinetics; type: in vivo
[15] = test system: PMN migration induced by CXCL12; assay: CXCL12-induced PMN migration; type: cell-based; conditions: up to 10 μM
Procedure: as §8

[16] = test system: PMN migration induced by CCL3; assay: CCL3-induced PMN migration; type: cell-based; conditions: up to 10 μM
Procedure: as §8

[17] = biological target: C5aR (Homo sapiens, UniProt P21730); conditions: read-out: IC50, inhibition of C5a-induced human PMN migration; human PMNs, 10 nM C5a
Procedure: as §2

[18] = test system: Ca2+ influx in OGD/R neurons; assay: Fluo-4 NW calcium assay in OGD/R neurons; type: cell-based, rat; conditions: 500 nM, P < 0.001 OGD/R-DF vs OGD/R-UT
Procedure: Neuronal cells, grown on 96-well plates, were exposed to OGD/R and treated with 500 nM of DF3016A; growth media were removed, and 100 μl of the dye loading solution (F36206 Fluo-4 NW Calcium Assay Kit, Invitrogen) was added carefully to each well. Plates were incubated at 37 °C for 30 min and then at room temperature for an additional 30 min. […] Data were presented as the ratio between Ca^++ influx and neuronal viability.

[19] = test system: cortical neurons exposed to OGD/R; conditions: 500 nM, 1 h OGD, 3 to 48 h of reperfusion
Procedure: DF3016A (500 nM) was added to the cortical neurons which were exposed to O2 and glucose deprivation with glucose-free Neurobasal in Hypoxia Chamber for Cell Culture (BioSpherix) at 5% CO2 atmosphere-[…]. O2 concentration was monitored by using a ProOx sensor controller, and the 0.03% O2 value was considered acceptable. Cells were incubated in this anaerobic chamber for 1 h and then removed from the anaerobic environment. […] Cells of control group were treated identically except that they were not exposed to OGD/R.

[20] = rat, in vivo, po, 30 mg/kg
Procedure: SD rats (370–450 g and 3–4 months of age at the time of testing) were purchased from Charles River, UK. All animals were housed in groups of three per room under controlled conditions of temperature (19 to 21 °C) and humidity (50%), and maintained on a 12-h light/dark cycle (lights on at 7 and lights off at 19 including a 30-min dawn/dusk lights increasing/dimming period, respectively). Animals had free access to rat chow pellets CRM (P) and water except during the experimental procedures. All animals were weighed immediately before the test. The test drug was administered orally at 30 mg/kg using saline solution (0.9% NaCl) as vehicle. […] Cardiac blood samples, 0.6 ml, were obtained and placed in EDTA-coated tubes. The tubes were spun at 13,000 rpm for 4 min and 100 μl of supernatant taken and immediately stored at − 80 °C prior to analysis. Plasma samples were analyzed by liquid chromatography–mass spectrometry (LC-MS/MS) following extraction by protein precipitation with internal standard in acetonitrile, and levels of parent measured against an extracted calibration curve of plasma samples spiked with test compound. The whole brain was harvested then placed in a plastic tube and immediately frozen at − 80 °C until required. Brain tissue were homogenized and analyzed by LC-MS/MS following extraction by protein precipitation, and levels of parent measured against an extracted calibration curve of brain homogenate samples spiked with the test compound. Total exposure levels of the test compound in brain and plasma at 2 h postdose were determined.

[21] = test system: PMN migration induced by CXCL8; assay: CXCL8-induced PMN migration; type: cell-based; conditions: up to 10 μM
Procedure: as §8

[22] = Rat brain tissue binding (rBTB); type: in vitro ADME
[23] = test system: PMN migration induced by fMLP; assay: fMLP-induced PMN migration; type: cell-based; conditions: up to 10 μM
Procedure: as §8

[24] = test system: LPS-induced PGE2 accumulation; assay: LPS-induced PGE2 production in peritoneal murine macrophages; type: cell-based, mouse; conditions: up to 10 μM, LPS 1 μg/ml, 24 h
Procedure: Cells were placed at 1 × 10^6 ml^−1 in 96-well plates and non-adherent cells removed by gentle washing 2 h later. DF3016A was then added to adherent macrophages 20 min before adding lipopolysaccharide (LPS) (1 μg ml^−1). Control cells received vehicle at the appropriate dilution. Total prostaglandin E2 (PGE2) production was determined in the supernatant 24 h after LPS stimulation. PGE2 levels were measured by Enzyme Immunoassay (EIA) Kit (sensitivity 2.5 pg per well).

Sequence of C5aR (P21730 whole entry): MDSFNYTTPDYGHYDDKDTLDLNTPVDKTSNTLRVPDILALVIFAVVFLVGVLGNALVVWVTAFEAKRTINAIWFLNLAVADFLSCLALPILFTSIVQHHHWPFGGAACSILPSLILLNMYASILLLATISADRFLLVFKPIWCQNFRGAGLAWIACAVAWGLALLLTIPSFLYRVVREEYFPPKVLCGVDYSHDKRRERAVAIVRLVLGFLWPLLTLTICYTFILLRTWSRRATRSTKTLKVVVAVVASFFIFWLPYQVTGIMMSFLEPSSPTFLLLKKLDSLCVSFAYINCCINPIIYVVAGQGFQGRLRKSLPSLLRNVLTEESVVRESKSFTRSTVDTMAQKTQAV
Sequence of rat C5aR (P97520 whole entry): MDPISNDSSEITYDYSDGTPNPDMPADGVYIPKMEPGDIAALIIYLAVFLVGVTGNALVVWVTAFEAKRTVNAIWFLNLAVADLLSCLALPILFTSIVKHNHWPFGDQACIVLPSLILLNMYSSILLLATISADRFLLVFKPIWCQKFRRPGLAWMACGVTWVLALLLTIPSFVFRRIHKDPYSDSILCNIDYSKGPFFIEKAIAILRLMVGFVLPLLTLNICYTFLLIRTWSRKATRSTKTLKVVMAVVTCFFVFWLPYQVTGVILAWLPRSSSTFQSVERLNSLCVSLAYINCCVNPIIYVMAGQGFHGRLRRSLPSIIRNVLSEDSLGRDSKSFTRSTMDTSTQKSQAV
Sequence of mouse C5aR (P30993 whole entry): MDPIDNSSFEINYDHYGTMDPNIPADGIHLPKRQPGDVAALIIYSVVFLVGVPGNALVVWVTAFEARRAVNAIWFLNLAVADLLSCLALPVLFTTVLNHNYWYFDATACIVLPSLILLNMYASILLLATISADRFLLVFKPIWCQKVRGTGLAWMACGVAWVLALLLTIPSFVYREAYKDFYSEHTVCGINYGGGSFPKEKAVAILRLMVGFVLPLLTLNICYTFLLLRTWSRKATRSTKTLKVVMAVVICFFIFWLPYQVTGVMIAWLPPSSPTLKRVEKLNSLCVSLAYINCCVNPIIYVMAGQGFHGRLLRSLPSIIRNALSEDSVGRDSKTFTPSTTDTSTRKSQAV

Compound: CC(c1ccc(Nc2nc(C(F)(F)F)cs2)cc1)c1nnn[nH]1 (stereo not shown) [DF3016A]
- rPPB Fu (free plasma fraction) [1]: 0.7%
- Neuronal death by AO/ET staining [2]: close to that of control
- Inhibition of the assayed receptors (off-target activities, 44 targets) [3]: did not show any inhibition
- IC50 [4]: 45 nM
- IC50 [5]: 37 nM
- TNF-α release after OGD/R [6]: restoration of control conditions
- miR-181a over-expression after OGD/R [7]: completely attenuated
- C5aR gene expression after OGD/R [8]: reverted C5aR gene expression to the control levels
- C5a protein level after OGD/R [9]: restored C5a protein level to not significant values compared to control
- Mortality compared to the control ([10]; 10 nM to 5 μM, 24 h, MTS): no significant mortality
- Viability changes on longer treatment ([10]; 500 nM, 24, 48, and 72 h): without significant viability changes
- Inhibition of spontaneous cell migration per se [11]: did not inhibit
- Effect on PMN migration induced by CXCL1 [12]: no effect
- IL-1β release after OGD/R [13]: restoration of control conditions
- Oral t1/2 [14]: 6.1 h
- Rat bioavailability [14]: 69%
- Effect on PMN migration induced by CXCL12 [15]: no effect
- Effect on PMN migration induced by CCL3 [16]: no effect
- IC50 [17]: 50 nM
- Ca2+ influx in OGD/R neurons [18]: significant reduction
- Effect on OGD/R-induced cell death (MTS) [19]: significantly attenuated OGD/R-induced cell death
- Plasma Cmax [20]: 104,683 ± 8867 ng/mL
- Kp (brain to plasma ratio) ([20]; 2 h): 0.04
- Kpuu (unbound brain to plasma ratio) ([20]; 2 h): 0.44
- Effect on PMN migration induced by CXCL8 [21]: no effect
- rBTB Fu (free brain fraction) [22]: 7.7%
- Effect on PMN migration induced by fMLP [23]: no effect
- Effect on LPS-induced PGE2 accumulation [24]: no effect
